Laboratory results from patent US7777030B2, “Compositions and methods for the treatment and prevention of disease” (Centre National de la Recherge Scientifique (CNRS), priority 2005, dated 2010).

Tests used:
[1] = tested on: primary mouse hepatocyte culture; test: toxicity on primary mouse hepatocyte culture; assay type: cell-based; details: tested at different doses (6, 25-100 μg/ml)
[2] = tested on: malaria liver stage (LS) parasites; test: effect on sporozoite invasion and malaria liver stage development in hepatocytes; assay type: cell-based; details: compounds added at sporozoite invasion and during liver stage development; schizonts counted in 48 hours cultures; FIG. 5

CN1CN(Cc2ccccc2)C(=O)NC(Cc2ccccc2)C1=O (stereo not shown) [8a] was tested, and the “toxicity on primary mouse hepatocyte culture” value [1] was “non toxic” and the “effect on liver parasites / LS development (schizont number)” value [2] was “inhibit significantly and repeatedly”.

With CN1CNC(=O)NC(Cc2ccccc2)C1=O (stereo not shown) [4b] the “toxicity on primary mouse hepatocyte culture” value [1] was “non toxic” and the “effect on liver parasites / LS development (schizont number)” value [2] was “inhibit significantly and repeatedly”.
